Source: the NIST ThermoML archive (doi:10.1021/je0502849)
± gives the expanded uncertainty stated by the source.

Conditions: Liquid, Pulse-echo method

CCC(C)C(C)C (configuration not stated) [2,3-dimethylpentane]
speed of sound [m/s]
Conditions	293.15 K	303.15 K	313.15 K	323.15 K	333.15 K	343.15 K	353.15 K	363.15 K	373.15 K
100 kPa	1149.5 ± 1.6	1103.2 ± 1.5	1061.2 ± 1.5	1017.4 ± 1.5	973.7 ± 1.5	931 ± 1.5	889.5 ± 1.4	849.4 ± 1.4	808.9 ± 1.4
10000 kPa	1220.2 ± 1.5	1178.6 ± 1.5	1138 ± 1.5	1099.7 ± 1.5	1061.7 ± 1.5	1022.5 ± 1.4	986.1 ± 1.4	950.4 ± 1.4	914.8 ± 1.5
20000 kPa	1284.8 ± 1.5	1245.9 ± 1.5	1207.8 ± 1.5	1171.8 ± 1.5	1136.5 ± 1.4	1101.8 ± 1.4	1067.4 ± 1.4	1035.4 ± 1.4	1003.1 ± 1.4
30000 kPa	1342.3 ± 1.5	1306.5 ± 1.5	1270.7 ± 1.5	1236.2 ± 1.5	1203.1 ± 1.4	1170.5 ± 1.4	1138.8 ± 1.4	1108.4 ± 1.4	1079 ± 1.4
40000 kPa	1396.2 ± 1.5	1361.5 ± 1.5	1327.2 ± 1.5	1294.8 ± 1.5	1263.1 ± 1.4	1232 ± 1.4	1201.8 ± 1.4	1173.6 ± 1.4	1145.4 ± 1.4
50000 kPa	1445.3 ± 1.5	1411.9 ± 1.5	1379.5 ± 1.5	1348.2 ± 1.5	1317.7 ± 1.5	1287.5 ± 1.4	1259.9 ± 1.4	1232.3 ± 1.4	1205.1 ± 1.4
60000 kPa	1491.9 ± 1.5	1458.5 ± 1.5	1428.2 ± 1.5	1397.8 ± 1.5	1368.8 ± 1.5	1339.8 ± 1.4	1312.3 ± 1.4	1286.2 ± 1.4	1260.3 ± 1.4
70000 kPa	1535.2 ± 1.5	1503.4 ± 1.5	1473.4 ± 1.5	1444.3 ± 1.5	1416 ± 1.5	1388.3 ± 1.5	1361.7 ± 1.4	1336.7 ± 1.4	1311.6 ± 1.4
80000 kPa	1576.5 ± 1.5	1545.5 ± 1.5	1516.6 ± 1.5	1488.2 ± 1.5	1460.6 ± 1.5	1433.1 ± 1.5	1407.9 ± 1.4	1383.4 ± 1.4	1358.8 ± 1.4
90000 kPa	1616.1 ± 1.5	1585.9 ± 1.5	1557.2 ± 1.5	1529.5 ± 1.5	1502.6 ± 1.5	1476.4 ± 1.5	1451 ± 1.5	1427.8 ± 1.4	1403.8 ± 1.4
100000 kPa	1653 ± 1.6	1623.9 ± 1.5	1595.8 ± 1.5	1569.1 ± 1.5	1542.8 ± 1.5	1516.8 ± 1.5	1492.5 ± 1.5	1469.5 ± 1.5	1446.4 ± 1.5
110000 kPa	1688.6 ± 1.6	1660 ± 1.5	1632.9 ± 1.5	1606.4 ± 1.5	1580.5 ± 1.5	1555.6 ± 1.5	1531.5 ± 1.5	1508.7 ± 1.5	1486.3 ± 1.5
120000 kPa	1723.2 ± 1.6	1694.7 ± 1.6	1668.4 ± 1.5	1642.2 ± 1.5	1617.1 ± 1.5	1592.3 ± 1.5	1569.2 ± 1.5	1546.8 ± 1.5	1524.6 ± 1.5
130000 kPa	1756.3 ± 1.6	1728.8 ± 1.6	1702.5 ± 1.6	1676.9 ± 1.5	1652.2 ± 1.5	1627.9 ± 1.5	1604.7 ± 1.5	1583 ± 1.5	1561.1 ± 1.5
140000 kPa	1788 ± 1.6	1760.4 ± 1.6	1735.5 ± 1.5	1713.3 ± 1.5	1685.7 ± 1.5	1661.8 ± 1.5	1639.3 ± 1.5	1617.8 ± 1.5	1596.4 ± 1.5
150000 kPa	1818.6 ± 1.6	1792.3 ± 1.6	1766.7 ± 1.6	1742.2 ± 1.6	1718.3 ± 1.5	1694.8 ± 1.5	1672.8 ± 1.5	1650.9 ± 1.5	1630.2 ± 1.5

CCCC(C)C [2-methylpentane]
speed of sound [m/s]
Conditions	293.15 K	303.15 K	313.15 K	323.15 K	333.15 K	343.15 K	353.15 K	363.15 K	373.15 K
100 kPa	1064.6 ± 1.6	1016.5 ± 1.5	971.8 ± 1.5	927.3 ± 1.5	–	–	–	–	–
10000 kPa	1145.5 ± 1.5	1102.8 ± 1.5	1061.7 ± 1.5	1022 ± 1.5	982.1 ± 1.5	943.2 ± 1.4	905 ± 1.4	867.4 ± 1.4	830.7 ± 1.4
20000 kPa	1215.4 ± 1.5	1176 ± 1.5	1138.5 ± 1.5	1101.2 ± 1.5	1065.4 ± 1.4	1030.2 ± 1.4	996.4 ± 1.4	962.8 ± 1.4	931.1 ± 1.4
30000 kPa	1277.6 ± 1.5	1240.8 ± 1.5	1205.5 ± 1.5	1170.8 ± 1.4	1137.2 ± 1.4	1104.8 ± 1.4	1073.6 ± 1.4	1042.9 ± 1.4	1013 ± 1.4
40000 kPa	1334.9 ± 1.5	1299.5 ± 1.5	1265.9 ± 1.5	1233.9 ± 1.4	1201.3 ± 1.4	1170.9 ± 1.4	1141 ± 1.4	1112.8 ± 1.4	1084.6 ± 1.4
50000 kPa	1386.9 ± 1.5	1352.6 ± 1.5	1321.2 ± 1.5	1289.9 ± 1.4	1260.2 ± 1.4	1230.4 ± 1.4	1201.8 ± 1.4	1174.7 ± 1.4	1148.2 ± 1.4
60000 kPa	1434.8 ± 1.5	1403 ± 1.5	1372.2 ± 1.5	1342.1 ± 1.5	1313.1 ± 1.4	1284.6 ± 1.4	1257.8 ± 1.4	1231.7 ± 1.4	1206.3 ± 1.4
70000 kPa	1480.4 ± 1.5	1449.6 ± 1.5	1419.4 ± 1.5	1391.6 ± 1.5	1363.4 ± 1.5	1335.3 ± 1.4	1309.7 ± 1.4	1284.1 ± 1.4	1259.6 ± 1.4
80000 kPa	1523.4 ± 1.5	1492.9 ± 1.5	1464 ± 1.5	1436 ± 1.5	1408.6 ± 1.5	1381.8 ± 1.4	1356.7 ± 1.4	1332.7 ± 1.4	1309 ± 1.4
90000 kPa	1564 ± 1.5	1534.6 ± 1.5	1506.3 ± 1.5	1478.4 ± 1.5	1452.5 ± 1.5	1426.6 ± 1.5	1402.3 ± 1.4	1378.4 ± 1.4	1354.6 ± 1.4
100000 kPa	1602.3 ± 1.5	1573.5 ± 1.5	1546.3 ± 1.5	1519.2 ± 1.5	1493.6 ± 1.5	1468.3 ± 1.5	1444.8 ± 1.4	1421.9 ± 1.4	1399 ± 1.4
110000 kPa	1638.5 ± 1.5	1610.7 ± 1.5	1584.2 ± 1.5	1558.7 ± 1.5	1532.6 ± 1.5	1508.4 ± 1.5	1485.1 ± 1.5	1462.6 ± 1.4	1440.8 ± 1.4
120000 kPa	1674.4 ± 1.5	1646.9 ± 1.5	1620.7 ± 1.5	1595.2 ± 1.5	1570 ± 1.5	1546.2 ± 1.5	1523.3 ± 1.5	1501.1 ± 1.5	1479.6 ± 1.5
130000 kPa	1708.1 ± 1.6	1681.6 ± 1.5	1655.7 ± 1.5	1630.8 ± 1.5	1605.9 ± 1.5	1582.5 ± 1.5	1560 ± 1.5	1538.3 ± 1.5	1517.1 ± 1.5
140000 kPa	1740.8 ± 1.6	1714.3 ± 1.6	1689.6 ± 1.5	1664.2 ± 1.5	1640.4 ± 1.5	1617.2 ± 1.5	1595.2 ± 1.5	1573.9 ± 1.5	1553 ± 1.5
150000 kPa	1771.8 ± 1.6	1746.6 ± 1.6	1721.4 ± 1.6	1696.8 ± 1.5	1673 ± 1.5	1650.2 ± 1.5	1628.8 ± 1.5	1607.8 ± 1.5	1587.5 ± 1.5

CC(C)CC(C)(C)C [2,2,4-trimethylpentane]
speed of sound [m/s]
Conditions	293.15 K	303.15 K	313.15 K	323.15 K	333.15 K	343.15 K	353.15 K	363.15 K	373.15 K
100 kPa	1104.6 ± 1.5	1061.7 ± 1.5	1019.1 ± 1.5	977.9 ± 1.5	935.8 ± 1.4	897.3 ± 1.4	858.2 ± 1.4	817.2 ± 1.4	780.4 ± 1.4
10000 kPa	1178.5 ± 1.5	1139.3 ± 1.5	1100.9 ± 1.5	1063.5 ± 1.4	1026.6 ± 1.4	992.6 ± 1.4	958 ± 1.4	924.3 ± 1.4	891 ± 1.4
20000 kPa	1244.6 ± 1.5	1208.6 ± 1.5	1173 ± 1.5	1138.8 ± 1.4	1105.2 ± 1.4	1071.6 ± 1.4	1041.7 ± 1.4	1011.1 ± 1.4	980.7 ± 1.4
30000 kPa	1304.8 ± 1.5	1270.2 ± 1.5	1237 ± 1.5	1204.7 ± 1.4	1173 ± 1.4	1142.7 ± 1.4	1114.1 ± 1.4	1085.5 ± 1.4	1057.5 ± 1.4
40000 kPa	1358.5 ± 1.5	1326.8 ± 1.5	1295.2 ± 1.5	1264.6 ± 1.4	1234.2 ± 1.4	1205.7 ± 1.4	1178.7 ± 1.4	1151.4 ± 1.4	1125.2 ± 1.4
50000 kPa	1410.3 ± 1.5	1378.5 ± 1.5	1349.3 ± 1.5	1319 ± 1.4	1290.2 ± 1.4	1262.9 ± 1.4	1236.1 ± 1.4	1211.3 ± 1.4	1185.9 ± 1.4
60000 kPa	1458.1 ± 1.5	1427 ± 1.5	1397.6 ± 1.5	1369.8 ± 1.5	1341.8 ± 1.4	1315.4 ± 1.4	1290.4 ± 1.4	1265.7 ± 1.4	1242.1 ± 1.4
70000 kPa	1502.5 ± 1.5	1472.6 ± 1.5	1443.4 ± 1.5	1416.6 ± 1.5	1390 ± 1.5	1363.5 ± 1.4	1339.5 ± 1.4	1316.6 ± 1.4	1293.1 ± 1.4
80000 kPa	1544.7 ± 1.5	1515.6 ± 1.5	1487.6 ± 1.5	1461.2 ± 1.5	1434.9 ± 1.5	1410.8 ± 1.4	1386.8 ± 1.4	1364.4 ± 1.4	1341.5 ± 1.4
90000 kPa	1584.5 ± 1.5	1556.4 ± 1.5	1529 ± 1.5	1503.4 ± 1.5	1479 ± 1.5	1453.6 ± 1.5	1431 ± 1.4	1408.2 ± 1.4	1386 ± 1.4
100000 kPa	1622.6 ± 1.5	1594.5 ± 1.5	1568.7 ± 1.5	1543.4 ± 1.5	1519 ± 1.5	1495.3 ± 1.5	1472.5 ± 1.5	1449.9 ± 1.4	1428.5 ± 1.4
110000 kPa	1658.9 ± 1.5	1632.1 ± 1.5	1605.9 ± 1.5	1581.4 ± 1.5	1557.7 ± 1.5	1534 ± 1.5	1512.1 ± 1.5	1490.6 ± 1.5	1469.2 ± 1.4
120000 kPa	1694 ± 1.5	1667.5 ± 1.5	1641.7 ± 1.5	1617.8 ± 1.5	1594.1 ± 1.5	1571.7 ± 1.5	1549.6 ± 1.5	1529 ± 1.5	1508.2 ± 1.5
130000 kPa	1727.5 ± 1.6	1701.6 ± 1.5	1676.3 ± 1.5	1653.1 ± 1.5	1629.5 ± 1.5	1607.2 ± 1.5	1585.9 ± 1.5	1565.5 ± 1.5	1545.1 ± 1.5
140000 kPa	1760.1 ± 1.6	1734.3 ± 1.6	1709.4 ± 1.5	1686.4 ± 1.5	1663.5 ± 1.5	1641.7 ± 1.5	1620.5 ± 1.5	1600.8 ± 1.5	1580.3 ± 1.5
150000 kPa	1791.1 ± 1.6	1766.4 ± 1.6	1741.7 ± 1.6	1718.6 ± 1.5	1696.2 ± 1.5	1675 ± 1.5	1654.1 ± 1.5	1634.2 ± 1.5	1614 ± 1.5
